Molecular target: T1, human glucagon receptor (Homo sapiens, UniProt P47871)
T1 construct: expressed in transfected cells; cell membranes used
Assay: Glucagon Receptor Binding Assay (125I-glucagon, SPA, CHO cell membranes)
Conditions: for relative potency as glucagon receptor antagonist among the stereoisomers prepared: comparison of stereoisomers of the same example, assay not stated; for IC50: inhibition of 125I-glucagon binding to membranes of CHO cells expressing cloned human glucagon receptor, value for the most active stereoisomer prepared
Description: A stable CHO (Chinese hamster ovary) cell line expressing cloned human glucagon receptor was maintained as described (Chicchi, et. al. J Biol Chem 272, 7765-9(1997); Cascieri, et. al. J Biol Chem 274, 8694-7(1999)). To determine antagonistic binding affinity of compounds, 0.001-0.003 mg of cell membranes from these cells were pre-incubated with 0.100 mg WGA-coated PVT SPA beads (Amersham) for 20 minutes at room temperature in […] of a buffer containing 50 mM Tris-HCl (pH 7.5), 5 mM MgCl2, 2 mM EDTA, 0.1% BSA and 3% glycerol in Costar 384 well plates with clear bottoms (#3706). Next, 25 μL of ^125I-Glucagon (New England Nuclear, MA) (1×10^−14 mol per well) and either 1 μL solutions of test compounds or 0.001 mM unlabeled glucagon or DMSO were added and mixed. After 4-12 hours incubation at room temperature, the radioactivity bound to the cell membranes was determined in a radioactive emission detection counter (Wallac-Microbeta). Data were analyzed using the Data Analyzer software program of Merck & Co., Inc. The IC50 values were calculated using non-linear regression analysis assuming single-site competition.

T1 sequence (P47871 26-477): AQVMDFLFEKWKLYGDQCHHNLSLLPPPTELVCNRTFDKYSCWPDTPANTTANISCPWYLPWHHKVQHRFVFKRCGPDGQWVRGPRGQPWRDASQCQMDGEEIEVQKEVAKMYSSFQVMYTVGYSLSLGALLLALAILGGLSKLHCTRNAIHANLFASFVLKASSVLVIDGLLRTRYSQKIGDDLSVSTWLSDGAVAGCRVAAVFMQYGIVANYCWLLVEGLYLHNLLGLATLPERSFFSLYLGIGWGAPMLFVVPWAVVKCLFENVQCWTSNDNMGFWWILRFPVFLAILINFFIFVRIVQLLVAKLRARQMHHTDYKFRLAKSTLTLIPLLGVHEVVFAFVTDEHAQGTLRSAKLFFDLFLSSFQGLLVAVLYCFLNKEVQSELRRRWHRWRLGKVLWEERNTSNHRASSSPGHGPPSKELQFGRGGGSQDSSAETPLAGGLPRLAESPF

Row | Compound | relative potency as glucagon receptor antagonist among the stereoisomers prepared | IC50 [nM]
1 | CCCC(c1ccc(C(=O)NCCC(=O)O)cc1)C(c1ccc(Cl)cc1)c1n[nH]c2c(F)cc(C#N)cc12 (single isomer, unassigned) [Example 36, N-(4-{1-[(4-Chlorophenyl)(5-Cyano-7-Fluoro-1H-Indazol-3-Yl)Methyl]Butyl}Benzoyl)-β-Alanine] | the more potent glucagon receptor antagonist | 4.3
2 | CCCC(c1ccc(C(=O)NCCC(=O)O)cc1)C(c1ccc(Cl)cc1)c1n[nH]c2ccc(C(F)(F)F)cc12 (single isomer, unassigned) [Example 5, N-[4-(1-{(4-CHLOROPHENYL)[5-(TRIFLUOROMETHYL)-1H- INDAZOL-3-YL]METHYL}BUTYL)BENZOYL]-β-ALANINE] | – | 0.8
3 | CCCC(c1ccc(C(=O)NCCC(=O)O)cc1)C(c1ccc(Cl)cc1)c1nn(C)c2ccc(C(F)(F)F)cc12 (single isomer, unassigned) [Example 9, N-[4-(1-{(4-CHLOROPHENYL)[1-METHYL-5-(TRIFLUOROMETHYL)-1H- INDAZOL-3-YL]METHYL}BUTYL)BENZOYL]-β-ALANINE] | – | 1
4 | CCCC(c1ccc(C(=O)NCCC(=O)O)cc1)C(c1ccc(Cl)cc1)c1nn(C)c2c(Cl)cc(C(F)(F)F)cc12 (single isomer, unassigned) [Example 2, N-(4-{1-[[7-Chloro-1-Methyl-5-(Trifluoromethyl)-1H-Indazol-3-Yl](4-Chlorophenyl)Methyl]Butyl}Benzoyl)-β-Alanine] | – | 0.7
5 | CCCC(c1ccc(C(=O)NCCC(=O)O)cc1)C(c1ccc(Cl)cc1)c1nn(C)c2c(C)cc(Cl)cc12 (single isomer, unassigned) [Example 11, N-[4-(1-{(4-CHLOROPHENYL)[1,7-DIMETHYL-5-CHLORO-1H- INDAZOL-3-YL]METHYL}BUTYL)BENZOYL]-β-ALANINE] | – | 0.7
6 | CCCC(c1ccc(C(=O)NCCC(=O)O)cc1)C(c1ccc(Cl)cc1)c1n[nH]c2c(Cl)cc(C(F)(F)F)cc12 (single isomer, unassigned) [Example 6, N-[4-(1-{(4-CHLOROPHENYL)[7-CHLORO-5-(TRIFLUOROMETHYL)-1H-INDAZOL- 3-YL]METHYL}BUTYL)BENZOYL]-β-ALANINE] | – | 0.2
7 | CCCC(c1ccc(C(=O)NCCC(=O)O)cc1)C(c1ccc(Cl)cc1)c1c2cc(Cl)cc(Cl)c2nn1C (single isomer, unassigned) [Example 19, N-[4-(1-{(4-CHLOROPHENYL)[2-METHYL-5,7-DICHLORO-2H-INDAZOL-3- YL]METHYL}BUTYL)BENZOYL]-β-ALANINE] | – | 2
8 | CCCC(c1ccc(C(=O)NCCC(=O)O)cc1)C(c1ccc(Cl)cc1)c1nn(C)c2c(Cl)cc(Cl)cc12 (single isomer, unassigned) [Example 12, N-[4-(1-{(4-CHLOROPHENYL)[1-METHYL-5,7-DICHLORO-1H-INDAZOL-3- YL]METHYL}BUTYL)BENZOYL]-β-ALANINE] | – | 0.9
9 | CCCC(c1ccc(C(=O)NCCC(=O)O)cc1)C(c1ccc(Cl)cc1)c1c2cc(C(F)(F)F)cc(Cl)c2nn1CC(F)(F)F (single isomer, unassigned) [Example 17, N-[4-(1-{(4-CHLOROPHENYL)[7-CHLORO-2-(2,2,2- TRIFLUOROETHYL)-5-(TRIFLUOROMETHYL)-2H-INDAZOL-3- YL]METHYL}BUTYL)BENZOYL]-β-ALANINE] | – | 3.9
10 | CCCC(c1ccc(C(=O)NCCC(=O)O)cc1)C(c1ccc(Cl)cc1)c1c2cc(C(F)(F)F)ccc2nn1C (single isomer, unassigned) [Example 13, N-[4-(1-{(4-CHLOROPHENYL)[2-METHYL-5- (TRIFLUOROMETHYL)-2H-INDAZOL-3- YL]METHYL}BUTYL)BENZOYL]-β-ALANINE] | – | 3.3
11 | CCCC(c1ccc(C(=O)NCCC(=O)O)cc1)C(c1ccc(Cl)cc1)c1n[nH]c2c(F)cc(-c3cccc(F)c3)cc12 (racemic) [Example 24] | – | 1.7
12 | CCC[C@H](c1ccc(C(=O)NCCC(=O)O)cc1)[C@H](c1ccc(Cl)cc1)c1n[nH]c2c(F)cc(C)cc12 (single isomer, unassigned) [Example 37] | – | 0.8
13 | CCCC(c1ccc(C(=O)NCCC(=O)O)cc1)C(c1ccc(Cl)cc1)c1n[nH]c2c(Cl)cc(Cl)cc12 (single isomer, unassigned) [Example 8, N-[4-(1-{(4-CHLOROPHENYL)[5,7-DICHLORO-1H-INDAZOL-3- YL]METHYL}BUTYL)BENZOYL]-β-ALANINE] | – | 0.4
14 | CCCC(c1ccc(C(=O)NCCC(=O)O)cc1)C(c1ccc(Cl)cc1)c1c2cc(C(F)(F)F)cc(Cl)c2nn1C (single isomer, unassigned) [Example 4, N-[4-(1-{(4-Chlorophenyl)[7-Chloro-2-Methyl-5-(Trifluoromethyl)-2H-Indazol-3-Yl]Methyl}Butyl)Benzoyl]-β-Alanine] | most potent glucagon receptor antagonist of the four stereoisomeric compounds | 2.6
15 | CCCC(c1ccc(C(=O)NCCC(=O)O)cc1)C(c1ccc(Cl)cc1)c1n[nH]c2c(F)cc(-c3ccc(C)cc3)cc12 (single isomer, unassigned) [Example 21, N-[4-(1-{(4-Chlorophenyl)[7-Fluoro-5-(4-Methylphenyl)-1H-Indazol-3-Yl]Methyl}Butyl)Benzoyl]-β-Alanine] | the more potent glucagon receptor antagonist | 2.6
16 | CCCC(c1ccc(C(=O)NCCC(=O)O)cc1)C(c1ccc(Cl)cc1)c1nn(C)c2c(F)cc(F)cc12 (single isomer, unassigned) [Example 10, N-[4-(1-{(4-CHLOROPHENYL)[1-METHYL-5,7-DIFLUORO-1H- INDAZOL-3-YL]METHYL}BUTYL)BENZOYL]-β-ALANINE] | – | 4
17 | CCCC(c1ccc(C(=O)NCCC(=O)O)cc1)C(c1ccc(Cl)cc1)c1c2cc(C(F)(F)F)cc(Cl)c2nn1-c1ccccc1 (single isomer, unassigned) [Example 3, N-[4-(1-{(4-Chlorophenyl)[7-Chloro-2-Phenyl-5-(Trifluoromethyl)-2H-Indazol-3-Yl]Methyl}Butyl)Benzoyl]-β-Alanine] | – | 37
18 | CCCC(c1ccc(C(=O)NCCC(=O)O)cc1)C(c1ccc(Cl)cc1)c1n[nH]c2c(C)cc(Cl)cc12 (single isomer, unassigned) [Example 1] | most potent glucagon antagonist of the four stereoisomeric compounds | 0.6
